Reference: US9416111B2, “Substituted diazine and triazine spleen tyrosine kinease (Syk) inhibitors” (Merck Sharp & Dohme Corp., priority 2012, dated 2016)
Where “and” joins values, the source holds several entries; their conditions need not be identical. Identical values can stand only once.

The compounds below were run against T1, recombinant human GST-SYK (Homo sapiens, UniProt P43405) (assay: Homogeneous Time-Resolved Fluorescence (HTRF) assay for the recombinant human Syk enzyme). Conditions: GST-hSYK 5 pM, ATP 25 μM, IC50 rated in classes, read-out: rhSYK Activity.
T1 construct: purchased Carna Biosciences 08-176
Type: biochemical
Description: Homogeneous Time-Resolved Fluorescence (HTRF) Assay for the Recombinant Human Syk Enzyme
A recombinant GST-hSYK fusion protein was used to measure potency of compounds to inhibit human Syk activity. The recombinant human GST-SYK (Carna Biosciences #08-176) (5 pM final concentration) was incubated with various concentrations of the inhibitor diluted in DMSO (0.1% final concentration) for 10 minutes at room temperature in 15 mM Tris-HCl (pH 7.5), 0.01% tween 20, 2 mM DTT in 384 well plate format. To initiate the reaction the biotinylated substrate peptide (250 nM final concentration) that contains the phosphorylation site for Syk was added with magnesium (5 mM final concentration) and ATP (25 μM final concentration). Final volume of the reaction was 10 μL. Phosphorylation of the peptide was allowed to proceed for 45′ at room temperature. To quench the reaction and detect the phosphorylated product, 2 nM of a Europium-anti-phosphotyrosine antibody (Perkin Elmer #AD0161) and 70 nM SA-APC (Perkin-Elmer #CR130-100) were added together in 15 mM Tris pH 7.5, 40 mM EDTA, 0.01% tween 20. Final volume of the quenching solution was 10 μL. The resulting HTRF signal was measured after 30 minutes on an EnVision (Perkin-Elmer) reader using a time-resolved fluorescence protocol.

`CCN1CCN(c2ncc(-c3cc(C)cc(Nc4nccc(C(F)(F)F)n4)c3)cn2)CC1` [Example 2.55, N-{3-[2-(4-ethylpiperazin-1-yl)pyrimidin-5-yl]-5-methylphenyl}-4-{trifluoromethyl)pyrimidin-2-amine] and `Cc1cc(Nc2nccc(C(F)(F)F)n2)cc(-c2cnc(N3CC(O)C3)nc2)c1` [Example 2.50, 1-[5-(3-methyl-5-{[4-(trifluoromethyl)pyrimidin-2-yl]amino}phenyl)pyrimidin-2-yl]azetidin-3-ol] cannot be ordered by IC50: less than 100 nM for the first, less than 100 nM for the second.

`Cc1cc(Nc2nccc(C(F)(F)F)n2)cc(-c2cnc(NCCS(N)(=O)=O)nc2)c1` [Example 2.26, 2-{[5-(3-methyl-5-{[4-(trifluoromethyl)pyrimidin-2-yl]amino}phenyl)pyrimidin-2-yl]amino}ethanesulfonamide] and `Cc1cc(Nc2nccc(C(F)(F)F)n2)cc(-c2cnc(NCCC(=O)O)nc2)c1` [Example 2.8, N-[5-(3-methyl-5-{[4-(trifluoromethyl)pyrimidin-2-yl]amino}phenyl)pyrimidin-2-yl]-beta-alanine] cannot be ordered by IC50: less than 100 nM for the first, less than 100 nM for the second.

First: Cc1cc(Nc2nccc(C(F)(F)F)n2)cc(-c2cncc(CCC(=O)O)n2)c1 [Example 3.18, 3-[6-(3-methyl-5-{[4-(trifluoromethyl)pyrimidin-2-yl]amino}phenyl)pyrazin-2-yl]propanoic acid]
Second: CCOC(=O)CCc1cncc(-c2cccc(Nc3nccc(C(F)(F)F)n3)c2)n1 [Example 3.13, ethyl 3-[6-(3-{[4-(trifluoromethyl)pyrimidin-2-yl]amino}phenyl)pyrazin-2-yl]propanoate]
The IC50 of the first is lower: less than 100 nM for the first, 1000 to 10000 nM for the second. The first is the more potent here.

`Cc1cc(Nc2nccc(C(F)(F)F)n2)cc(-c2cnc(NCC(=O)N(C)C)nc2)c1` [Example 2.64, N,N-dimethyl-N~2~-[5-(3-methyl-5-{[4-(trifluoromethyl)pyrimidin-2-yl]amino}phenyl)pyrimidin-2-yl]glycinamide] and `Cc1cc(Nc2nccc(C(F)(F)F)n2)cc(-c2cnc(NCC(C)(C)O)nc2)c1` [Example 2.47, 2-methyl-1-{[5-(3-methyl-5-{[4-(trifluoromethyl)pyrimidin-2-yl]amino}phenyl)pyrimidin-2-yl]amino}propan-2-ol] cannot be ordered by IC50: less than 100 nM for the first, less than 100 nM for the second.

`Cc1cc(Nc2nccc(C(F)(F)F)n2)cc(-c2cnc(N(C)CCC3OCCO3)nc2)c1` [Example 2.45, N-[2-(1,3-dioxolan-2-yl)ethyl]-N-methyl-5-(3-methyl-5-{[4-(trifluoromethyl)pyrimidin-2-yl]amino}phenyl)pyrimidin-2-amine] and `COc1ncc(-c2cc(C)cc(Nc3nccc(C(F)(F)F)n3)c2)cn1` [Example 1.2, N-[3-(2-methoxypyrimidin-5-yl)-5-methylphenyl]-4-(trifluoromethyl)pyrimidin-2-amine] cannot be ordered by IC50: less than 100 nM for the first, less than 100 nM for the second.

`Cc1cc(Nc2nccc(C(F)F)n2)cc(-c2cnc([C@H](C)[C@H]3CC[C@H](C(=O)O)[C@H](C)C3)nc2)c1` (single isomer, unassigned) [Example 7.4] and `Cc1cc(Nc2nccc(C(F)F)n2)cc(-c2cnc(C[C@H]3CC[C@H](C(=O)O)CC3)nc2)c1` [Example 5.1, trans-4-{[5-(3-{[4-(difluoromethyl)pyrimidin-2-yl]amino}-5-methylphenyl)pyrimidin-2-yl]methyl}cyclohexanecarboxylic acid] cannot be ordered by IC50: less than 100 nM for the first, less than 100 nM for the second.

Compared with `Cc1cc(Nc2nccc(C(F)(F)F)n2)cc(-c2ccc(N3CCC(O)CC3)nn2)c1` [Example 3.30, 1-[6-(3-methyl-5-{[4-(trifluoromethyl)pyrimidin-2-yl]amino}phenyl)pyridazin-3-yl]piperidin-4-ol], `Cc1cc(Nc2nccc(C(F)(F)F)n2)cc(-c2ccc(N(C)CC(=O)O)nn2)c1` [Example 3.38, N-methyl-N-[6-(3-methyl-5-{[4-(trifluoromethyl)pyrimidin-2-yl]amino}phenyl)pyridazin-3-yl]glycine] is lower in IC50: 100 to 1000 nM for the first, less than 100 nM for the second. The second is the more potent here.

`Cc1cc(Nc2nccc(C(F)(F)F)n2)cc(-c2cnc(N[C@H]3CCC(=O)NC3)nc2)c1` [Example 2.73, (5S)-5-{[5-(3-methyl-5-{[4-(trifluoromethyl)pyrimidin-2-yl]amino}phenyl)pyrimidin-2-yl]amino}piperidin-2-one] and `Cc1cc(Nc2nccc(C(F)(F)F)n2)cc(-c2cnc(N[C@@H]3CCC(=O)NC3)nc2)c1` [Example 2.72, (5R)-5-{[5-(3-methyl-5-{[4-(trifluoromethyl)pyrimidin-2-yl]amino}phenyl)pyrimidin-2-yl]amino}piperidin-2-one] cannot be ordered by IC50: less than 100 nM for the first, less than 100 nM for the second.

`Cc1cc(Nc2nccc(C(F)(F)F)n2)cc(-c2cnc(NC3CCCCNC3=O)nc2)c1` (stereo not drawn) [Example 2.42, 3-{[5-(3-methyl-5-{[4-(trifluoromethyl)pyrimidin-2-yl]amino}phenyl)pyrimidin-2-yl]amino}azepan-2-one] and `Cc1cc(Nc2nccc(C(F)(F)F)n2)cc(-c2cnc(NC3(CO)CCCC3)nc2)c1` [Example 2.36, (1-{[5-(3-methyl-5-{[4-(trifluoromethyl)pyrimidin-2-yl]amino}phenyl)pyrimidin-2-yl]amino}cyclopentyl)methanol] cannot be ordered by IC50: less than 100 nM for the first, less than 100 nM for the second.

First: CNC(=O)C1CCCN1c1ncc(-c2cc(C)cc(Nc3nccc(C(F)(F)F)n3)c2)cn1 (racemic) [Example 2.70, N-methyl-1-[5-(3-methyl-5-{[4-(trifluoromethyl)pyrimidin-2-yl]amino}phenyl)pyrimidin-2-yl]prolinamide]
Second: COCC1CCN(c2ncc(-c3cc(C)cc(Nc4nccc(C(F)(F)F)n4)c3)cn2)C1 (stereo not drawn) [Example 2.66, N-(3-{2-[3-(methoxymethyl)pyrrolidin-1-yl]pyrimidin-5-yl}-5-methylphenyl)-4-(trifluoromethyl)pyrimidin-2-amine]
The IC50 of the first is lower: less than 100 nM for the first, 100 to 1000 nM for the second.

`CCOC(=O)CCc1cc(-c2cc(C)cc(Nc3nccc(C4CC4)n3)c2)ncn1` [Example 3.53, ethyl 3-(6-{3-[(4-cyclopropylpyrimidin-2-yl)amino]-5-methylphenyl}pyrimidin-4-yl)propanoate] and `CCOC(=O)CCc1ccc(-c2cc(C)cc(Nc3nccc(C4CC4)n3)c2)nn1` [Example 3.42, ethyl 3-(6-{3-[(4-cyclopropylpyrimidin-2-yl)amino]-5-methylphenyl}pyridazin-3-yl)propanoate] fall in the same range of IC50: 100 to 1000 nM for the first, 100 to 1000 nM for the second.

`Cc1cc(Nc2nccc(C(F)(F)F)n2)cc(-c2cnc(NC(C)(C)CO)nc2)c1` [Example 2.57, 2-methyl-2-{[5-(3-methyl-5-{[4-(trifluoromethyl)pyrimidin-2-yl]amino}phenyl)pyrimidin-2-yl]amino}propan-1-ol] and `Cc1cc(Nc2nccc(C(F)(F)F)n2)cc(-c2cnc(NCCCO)nc2)c1` [Example 2.34, 3-{[5-(3-methyl-5-{[4-(trifluoromethyl)pyrimidin-2-yl]amino}phenyl)pyrimidin-2-yl]amino}propan-1-ol] cannot be ordered by IC50: less than 100 nM for the first, less than 100 nM for the second.

`CCC(CO)Nc1ncc(-c2cc(C)cc(Nc3nccc(C(F)(F)F)n3)c2)cn1` (stereo not drawn) [Example 2.59, 2-{[5-(3-methyl-5-{[4-(trifluoromethyl)pyrimidin-2-yl]amino}phenyl)pyrimidin-2-yl]amino}butan-1-ol] and `CCC[C@H](Nc1ncc(-c2cc(C)cc(Nc3nccc(C(F)(F)F)n3)c2)cn1)C(=O)O` [Example 2.14, N-[5-(3-methyl-5-{[4-(trifluoromethyl)pyrimidin-2-yl]amino}phenyl)pyrimidin-2-yl]-L-norvaline] cannot be ordered by IC50: less than 100 nM for the first, less than 100 nM for the second.

`Cc1cc(Nc2nccc(C(F)(F)F)n2)cc(-c2ccc(N(CCN(C)C)C(=O)N(C)C)nn2)c1` [Example 3.35, 1-[2-(dimethylamino)ethyl]-3,3-dimethyl-1-[6-(3-methyl-5-{[4-(trifluoromethyl)pyrimidin-2-yl]amino}phenyl)pyridazin-3-yl]urea] and `Cc1cc(Nc2nccc(C(F)(F)F)n2)cc(-c2ccnnc2)c1` [Example 3.43, N-(3-methyl-5-pyridazin-4-ylphenyl)-4-(trifluoromethyl)pyrimidin-2-amine] fall in the same range of IC50: 100 to 1000 nM for the first, 100 to 1000 nM for the second.

Compared with `CCOC(=O)CCc1cnc(-c2cccc(Nc3nccc(C(F)(F)F)n3)c2)cn1` [Example 3.3, ethyl 3-[5-(3-{[4-(trifluoromethyl)pyrimidin-2-yl]amino}phenyl)pyrazin-2-yl]propanoate], `CCOC(=O)CCc1cnc(-c2cc(C)cc(Nc3nccc(C)n3)c2)cn1` [Example 3.9, ethyl 3-(5-{3-methyl-5-[(4-methylpyrimidin-2-yl)amino]phenyl}pyrazin-2-yl)propanoate] is lower in IC50: 1000 to 10000 nM for the first, 100 to 1000 nM for the second. The second is the more potent here.

`Cc1cc(Nc2nccc(C3CC3)n2)cc(-c2cnc(CCC(=O)O)cn2)c1` [Example 3.12, 3-(5-{3-[(4-cyclopropylpyrimidin-2-yl)amino]-5-methylphenyl}pyrazin-2-yl)propanoic acid] and `Cc1cc(Nc2nccc(C(F)F)n2)cc(-c2cnc([C@H](C)[C@H]3CC[C@H](C(=O)O)[C@H](C)C3)nc2)c1` (single isomer, unassigned) [Example 7.7] cannot be ordered by IC50: less than 100 nM for the first, less than 100 nM for the second.

`Cc1cc(Nc2nccc(C)n2)cc(-c2cnc(CCC(=O)O)nc2)c1` [Example 3.61, 3-(5-{3-methyl-5-[(4-methylpyrimidin-2-yl)amino]phenyl}pyrimidin-2-yl)propanoic acid] was tested, and the IC50 was 100 to 1000 nM and < 100 nM.

Same assay, conditions: GST-hSYK 5 pM, ATP 25 μM, values in text, read-out: IC50

Point of comparison: `Cc1cc(Nc2nccc(C(F)F)n2)cc(-c2cnc([C@H](C)[C@H]3CC[C@H](C(=O)O)[C@H](C)C3)nc2)c1` (single isomer, unassigned) [Example 7.4], IC50 0.8 nM. Against it:
- Cc1cc(Nc2nccc(C(F)F)n2)cc(-c2cnc(C[C@H]3CC[C@H](C(=O)O)CC3)nc2)c1 [Example 5.1, trans-4-{[5-(3-{[4-(difluoromethyl)pyrimidin-2-yl]amino}-5-methylphenyl)pyrimidin-2-yl]methyl}cyclohexanecarboxylic acid] — 3.6-fold higher, 2.9 nM
- Cc1cc(Nc2nccc(C(F)F)n2)cc(-c2cnc([C@H](C)[C@H]3CC[C@H](C(=O)O)[C@H](C)C3)nc2)c1 (single isomer, unassigned) [Example 7.7] — within 1.5-fold, 1.2 nM
